The target of experiment [1] is Human ACC2 (Homo sapiens, UniProt O00763). As to the kind of experiment: In vitro ACC2 inhibition assay (ADP-Glo), human ACC2. Type of experiment: biochemical. The settings on record: 5 nM ACC2, 20 μM ATP, 20 μM acetyl-CoA. (In general: ADP-Glo turns the ADP formed in a reaction into a luminescent signal.)
Experiment [2] has as its system C. albicans ATCC 90028. Briefly: Anti-Fungal Activity Assay (broth microtiter MIC), C. albicans. The format is cell-based, Candida albicans. Conditions: Candida albicans, ATCC90028, 48 h, 3 replicates; MIC recorded at 48 h; read-out: MIC C. albicans ATCC 90028. The method in brief: (§1)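 Susceptibility testing used direct colony suspensions in RPMI 1640+MOPS from Sabouraud dextrose agar grown at 35° C. Endpoints were visual MICs at 48 h under CLSI M27-A3 microtiter conditions, plus a 24 h reading for soraphen.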

Experiment [3] has as its system C. krusei ATCC 6258. As to the kind of experiment: Anti-Fungal Activity Assay (broth microtiter MIC), C. krusei. The format is cell-based, Candida krusei. Conditions: Pichia kudriavzevii, ATCC6258, 48 h, 3 replicates; MIC recorded at 48 h; read-out: MIC C. krusei ATCC 6258. The method in brief:
as §1

The subject of experiment [4] is C. parapsilosis ATCC 22019. Briefly: Anti-Fungal Activity Assay (broth microtiter MIC), C. parapsilosis. The settings on record: Lodderomyces parapsilosis, ATCC22019, 48 h, 3 replicates; MIC recorded at 48 h; read-out: MIC C. parapsilosis ATCC 22019. The format is cell-based, Candida parapsilosis. The gist of the method:
as §1

For experiment [5], the target named is Fungal ACC2 (UniProt Q00955). The settings on record: read-out: Fungal ACC2 (IC50, in vitro ACC2 inhibition).

pIC50: −log10 of the molar value. Values after ≈ are worked out from the molar mass of the structure shown.

Sequence of Fungal ACC2 (Q00955 whole entry): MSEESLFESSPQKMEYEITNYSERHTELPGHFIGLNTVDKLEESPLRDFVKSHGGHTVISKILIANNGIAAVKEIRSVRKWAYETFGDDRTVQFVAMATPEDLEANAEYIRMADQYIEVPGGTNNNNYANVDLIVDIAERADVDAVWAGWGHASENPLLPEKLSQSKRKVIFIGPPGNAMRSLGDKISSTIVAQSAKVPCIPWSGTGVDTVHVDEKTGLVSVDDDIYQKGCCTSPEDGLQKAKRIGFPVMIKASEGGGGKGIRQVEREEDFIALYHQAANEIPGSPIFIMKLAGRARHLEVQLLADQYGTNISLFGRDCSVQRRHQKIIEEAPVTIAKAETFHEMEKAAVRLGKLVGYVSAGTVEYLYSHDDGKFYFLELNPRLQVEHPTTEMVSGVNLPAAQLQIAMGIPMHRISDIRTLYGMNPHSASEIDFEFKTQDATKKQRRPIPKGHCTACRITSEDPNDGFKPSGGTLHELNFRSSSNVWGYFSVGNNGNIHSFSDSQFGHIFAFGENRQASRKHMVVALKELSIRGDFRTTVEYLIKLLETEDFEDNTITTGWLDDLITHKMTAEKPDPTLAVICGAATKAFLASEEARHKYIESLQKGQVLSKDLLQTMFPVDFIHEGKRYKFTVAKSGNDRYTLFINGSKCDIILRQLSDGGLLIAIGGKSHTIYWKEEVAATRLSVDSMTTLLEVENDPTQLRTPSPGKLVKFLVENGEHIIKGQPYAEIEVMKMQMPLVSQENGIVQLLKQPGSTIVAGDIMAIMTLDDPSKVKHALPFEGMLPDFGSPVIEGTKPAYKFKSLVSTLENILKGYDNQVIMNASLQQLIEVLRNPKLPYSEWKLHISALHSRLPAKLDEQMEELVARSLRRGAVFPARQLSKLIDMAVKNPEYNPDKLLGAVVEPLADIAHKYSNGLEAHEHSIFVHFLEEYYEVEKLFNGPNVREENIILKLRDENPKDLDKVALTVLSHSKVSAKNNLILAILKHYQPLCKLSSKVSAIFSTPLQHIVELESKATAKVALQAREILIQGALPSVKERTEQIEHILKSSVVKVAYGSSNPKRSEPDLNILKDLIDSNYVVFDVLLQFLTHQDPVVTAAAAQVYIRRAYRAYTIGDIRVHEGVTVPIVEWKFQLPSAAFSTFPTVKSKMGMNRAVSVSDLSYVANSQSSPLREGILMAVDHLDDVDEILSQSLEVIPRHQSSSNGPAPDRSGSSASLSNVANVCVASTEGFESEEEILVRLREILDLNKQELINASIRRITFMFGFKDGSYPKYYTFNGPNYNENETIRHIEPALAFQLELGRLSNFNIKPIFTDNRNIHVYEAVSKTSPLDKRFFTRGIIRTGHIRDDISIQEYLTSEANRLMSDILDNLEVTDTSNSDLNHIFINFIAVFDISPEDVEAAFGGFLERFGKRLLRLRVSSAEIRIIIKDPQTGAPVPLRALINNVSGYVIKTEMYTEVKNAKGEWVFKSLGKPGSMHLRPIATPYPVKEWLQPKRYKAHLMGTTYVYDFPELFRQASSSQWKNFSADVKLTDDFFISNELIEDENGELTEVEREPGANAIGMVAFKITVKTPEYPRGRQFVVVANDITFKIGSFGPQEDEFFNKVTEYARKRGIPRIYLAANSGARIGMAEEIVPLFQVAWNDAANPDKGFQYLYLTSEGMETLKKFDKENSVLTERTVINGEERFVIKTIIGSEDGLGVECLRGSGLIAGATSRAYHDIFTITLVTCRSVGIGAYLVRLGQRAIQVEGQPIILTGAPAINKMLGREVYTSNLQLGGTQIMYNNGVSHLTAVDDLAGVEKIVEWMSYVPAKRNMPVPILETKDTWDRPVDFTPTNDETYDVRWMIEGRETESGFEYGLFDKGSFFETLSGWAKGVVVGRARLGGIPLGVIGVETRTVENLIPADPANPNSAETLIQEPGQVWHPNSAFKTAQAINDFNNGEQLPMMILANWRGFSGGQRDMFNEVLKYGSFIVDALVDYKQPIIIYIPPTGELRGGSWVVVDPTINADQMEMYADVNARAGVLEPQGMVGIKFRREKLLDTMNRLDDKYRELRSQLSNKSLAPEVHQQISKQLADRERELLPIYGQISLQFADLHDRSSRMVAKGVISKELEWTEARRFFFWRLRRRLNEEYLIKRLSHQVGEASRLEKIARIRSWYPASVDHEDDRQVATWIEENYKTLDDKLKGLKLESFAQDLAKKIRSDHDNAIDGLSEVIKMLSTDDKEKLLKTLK
Sequence of Human ACC2 (O00763 whole entry): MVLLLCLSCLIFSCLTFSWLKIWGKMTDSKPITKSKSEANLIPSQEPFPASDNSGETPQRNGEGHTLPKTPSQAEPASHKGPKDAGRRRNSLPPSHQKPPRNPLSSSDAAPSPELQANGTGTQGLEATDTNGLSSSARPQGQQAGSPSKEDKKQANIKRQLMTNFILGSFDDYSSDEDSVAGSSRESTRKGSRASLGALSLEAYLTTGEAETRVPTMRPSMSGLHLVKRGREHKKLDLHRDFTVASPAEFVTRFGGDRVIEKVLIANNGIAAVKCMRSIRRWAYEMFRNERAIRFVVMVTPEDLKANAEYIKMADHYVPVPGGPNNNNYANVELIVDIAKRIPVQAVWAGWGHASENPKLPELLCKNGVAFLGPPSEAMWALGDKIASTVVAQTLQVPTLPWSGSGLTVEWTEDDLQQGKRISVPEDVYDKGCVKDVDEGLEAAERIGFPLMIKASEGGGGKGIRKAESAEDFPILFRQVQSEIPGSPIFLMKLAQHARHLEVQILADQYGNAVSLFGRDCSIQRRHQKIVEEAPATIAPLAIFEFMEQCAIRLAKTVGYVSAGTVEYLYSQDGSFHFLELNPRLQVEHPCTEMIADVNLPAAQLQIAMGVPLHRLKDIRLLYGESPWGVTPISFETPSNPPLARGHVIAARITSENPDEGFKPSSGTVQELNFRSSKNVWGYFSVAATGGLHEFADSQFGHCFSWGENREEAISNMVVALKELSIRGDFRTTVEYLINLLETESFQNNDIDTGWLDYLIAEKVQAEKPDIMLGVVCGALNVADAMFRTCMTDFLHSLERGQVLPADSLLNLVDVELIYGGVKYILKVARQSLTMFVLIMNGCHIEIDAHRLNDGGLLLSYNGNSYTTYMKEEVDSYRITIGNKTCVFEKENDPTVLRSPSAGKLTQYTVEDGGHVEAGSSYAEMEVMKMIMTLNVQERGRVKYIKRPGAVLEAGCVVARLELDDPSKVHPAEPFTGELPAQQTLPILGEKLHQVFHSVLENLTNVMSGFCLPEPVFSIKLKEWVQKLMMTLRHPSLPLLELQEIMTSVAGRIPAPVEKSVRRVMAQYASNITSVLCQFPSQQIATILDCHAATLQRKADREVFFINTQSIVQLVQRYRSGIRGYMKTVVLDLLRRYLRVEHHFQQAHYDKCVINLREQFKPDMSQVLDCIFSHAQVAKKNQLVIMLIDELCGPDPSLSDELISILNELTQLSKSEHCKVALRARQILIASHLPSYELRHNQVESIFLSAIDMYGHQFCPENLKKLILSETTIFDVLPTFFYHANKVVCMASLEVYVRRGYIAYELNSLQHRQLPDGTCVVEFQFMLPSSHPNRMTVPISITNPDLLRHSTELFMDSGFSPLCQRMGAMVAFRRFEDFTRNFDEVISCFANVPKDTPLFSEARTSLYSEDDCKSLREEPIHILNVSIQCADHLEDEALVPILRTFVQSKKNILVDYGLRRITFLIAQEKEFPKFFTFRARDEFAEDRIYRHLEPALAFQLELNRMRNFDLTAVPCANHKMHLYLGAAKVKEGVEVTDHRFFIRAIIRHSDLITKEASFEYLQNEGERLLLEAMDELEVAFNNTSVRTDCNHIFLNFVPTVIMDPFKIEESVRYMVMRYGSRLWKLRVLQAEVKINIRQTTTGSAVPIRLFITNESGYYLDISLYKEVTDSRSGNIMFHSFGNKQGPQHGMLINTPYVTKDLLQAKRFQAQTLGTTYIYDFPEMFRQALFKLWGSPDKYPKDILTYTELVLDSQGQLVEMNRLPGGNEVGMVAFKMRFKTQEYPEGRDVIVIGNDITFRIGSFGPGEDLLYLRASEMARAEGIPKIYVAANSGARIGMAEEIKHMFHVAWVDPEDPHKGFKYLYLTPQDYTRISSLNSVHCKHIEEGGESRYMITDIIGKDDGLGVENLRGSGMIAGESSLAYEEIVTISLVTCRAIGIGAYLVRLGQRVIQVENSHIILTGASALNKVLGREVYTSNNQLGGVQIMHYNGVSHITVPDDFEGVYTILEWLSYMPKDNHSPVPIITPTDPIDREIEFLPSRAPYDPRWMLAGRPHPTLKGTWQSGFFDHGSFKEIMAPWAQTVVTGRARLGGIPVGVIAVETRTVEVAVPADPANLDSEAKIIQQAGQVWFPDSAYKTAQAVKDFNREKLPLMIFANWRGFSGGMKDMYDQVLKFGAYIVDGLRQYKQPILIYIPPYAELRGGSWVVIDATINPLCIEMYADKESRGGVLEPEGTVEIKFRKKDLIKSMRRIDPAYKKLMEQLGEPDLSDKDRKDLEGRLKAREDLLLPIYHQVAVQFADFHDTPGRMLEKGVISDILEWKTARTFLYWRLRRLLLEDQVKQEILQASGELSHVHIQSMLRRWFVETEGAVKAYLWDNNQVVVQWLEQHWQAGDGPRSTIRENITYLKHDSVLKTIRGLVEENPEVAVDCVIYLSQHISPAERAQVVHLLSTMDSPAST

The term pIC50 denotes the IC50 on a negative log10 scale, so that one unit is a factor of ten. One may read the MIC as the least concentration at which growth counts as inhibited. For `COc1ccc(F)cc1[C@H](Cn1c(=O)n([C@]2(C)CNC(=O)C2)c(=O)c2c(C)c(-n3nccn3)sc21)OCCO` [Compound I-119, 1-((R)-2-(5-fluoro-2-methoxyphenyl)-2-(2-hydroxyethoxy)ethyl)-5-methyl-3-((S)-3-methyl-5-oxopyrrolidin-3-yl)-6-(2H-1,2,3-triazol-2-yl)thieno[2,3-d]pyrimidine-2,4(1H,3H)-dione], the pIC50 in experiment [1] is 7.00 to 8.00; in experiment [5] it was 8.00 to 8.70. The MIC in experiment [2], in experiment [3] and in experiment [4] was 2.1 to 4 µg/mL (≈ 3.76 to 7.16 µM) in each case.

For `COCCO[C@@H](Cn1c(=O)n([C@]2(C)CC(=O)N(C)C2)c(=O)c2c(C)c(-n3nccn3)sc21)c1cc(F)ccc1OC` [Compound I-120, 3-((R)-1,3-dimethyl-5-oxopyrrolidin-3-yl)-1-((R)-2-(5-fluoro-2-methoxyphenyl)-2-(2-methoxyethoxy)ethyl)-5-methyl-6-(2H-1,2,3-triazol-2-yl)thieno[2,3-d]pyrimidine-2,4(1H,3H)-dione], the pIC50 in experiment [1] is 7.00 to 8.00; in experiment [5] it was 8.70 to 9.15. The MIC in experiment [2], in experiment [3] and in experiment [4] was 2.1 to 4 µg/mL (≈ 3.58 to 6.82 µM) each time.

Regarding `COc1ccc(F)cc1[C@H](Cn1c(=O)n([C@]2(C)CC(=O)N(C)C2)c(=O)c2c(C)c(-n3nccn3)sc21)OCCO` [Compound I-121, 3-((R)-1,3-dimethyl-5-oxopyrrolidin-3-yl)-1-((R)-2-(5-fluoro-2-methoxyphenyl)-2-(2-hydroxyethoxy)ethyl)-5-methyl-6-(2H-1,2,3-triazol-2-yl)thieno[2,3-d]pyrimidine-2,4(1H,3H)-dione], the results for the pIC50 in experiment [1] and in experiment [5] were 7.00 to 8.00 and 8.70 to 9.15, respectively. Moreover, the MIC in experiment [2], in experiment [3] and in experiment [4] was 2.1 to 4 µg/mL (≈ 3.67 to 6.99 µM) in each case.

As to `COCCO[C@@H](Cn1c(=O)n([C@@]2(C)CC(=O)N(C)C2)c(=O)c2c(C)c(-n3nccn3)sc21)c1cc(F)ccc1OC` [Compound I-122, 3-((S)-1,3-dimethyl-5-oxopyrrolidin-3-yl)-1-((R)-2-(5-fluoro-2-methoxyphenyl)-2-(2-methoxyethoxy)ethyl)-5-methyl-6-(2H-1,2,3-triazol-2-yl)thieno[2,3-d]pyrimidine-2.4(1H, 3H)-dione], the pIC50 in experiment [1] was 7.00 to 8.00; in experiment [5] it was 8.00 to 8.70. Moreover, the MIC in experiment [2], in experiment [3] and in experiment [4] was 2.1 to 4 µg/mL (≈ 3.58 to 6.82 µM) throughout.

Consider `COc1ccc(F)cc1[C@H](Cn1c(=O)n([C@@]2(C)CC(=O)N(C)C2)c(=O)c2c(C)c(-n3nccn3)sc21)OCCO` [Compound I-123, 3-((S)-1,3-dimethyl-5-oxopyrrolidin-3-yl)-1-((R)-2-(5-fluoro-2-methoxyphenyl)-2-(2-hydroxyethoxy)ethyl)-5-methyl-6-(2H-1,2,3-triazol-2-yl)thieno[2,3-d]pyrimidine-2,4(1H,3H)-dione], for which the pIC50 in experiment [1] is 7.00 to 8.00; in experiment [5], 8.70 to 9.15. Further, the MIC in experiment [2], in experiment [3] and in experiment [4] was 2.1 to 4 µg/mL (≈ 3.67 to 6.99 µM) in each case.

Take `COCCO[C@@H](Cn1c(=O)n([C@]2(C)CCCNC2=O)c(=O)c2c(C)c(-n3nccn3)sc21)c1cc(F)ccc1OC` [Compound I-124, 1-((R)-2-(5-fluoro-2-methoxyphenyl)-2-(2-methoxy-ethoxy)ethyl)-5-methyl-3-((R)-3-methyl-2-oxopiperidin-3-yl)-6-(2H-1,2,3-triazol-2-yl)thieno[2,3-d]pyrimidine-2,4(1H,3H)-dione]: the pIC50 in experiment [1] is 7.00 to 8.00; in experiment [5], 8.00 to 8.70. Further, the MIC in experiment [2], in experiment [3] and in experiment [4] was 2.1 to 4 µg/mL (≈ 3.58 to 6.82 µM) each time.

With `COCCO[C@@H](Cn1c(=O)n([C@@]2(C)CCCNC2=O)c(=O)c2c(C)c(-n3nccn3)sc21)c1cc(F)ccc1OC` [Compound I-125, 1-((R)-2-(5-fluoro-2-methoxyphenyl)-2-(2-methoxy-ethoxy)ethyl)-5-methyl-3-((S)-3-methyl-2-oxopiperidin-3-yl)-6-(2H-1,2,3-triazol-2-yl)thieno[2,3-d]pyrimidine-2,4(1H,3H)-dione], the figures for the pIC50 in experiment [1] and in experiment [5] were 7.00 to 8.00 and 8.00 to 8.70, respectively. The MIC in experiment [2], in experiment [3] and in experiment [4] was 2.1 to 4 µg/mL (≈ 3.58 to 6.82 µM) in each case.

For the molecule `COc1ccc(F)cc1[C@H](Cn1c(=O)n([C@]2(C)CCCNC2=O)c(=O)c2c(C)c(-n3nccn3)sc21)OCCO` [Compound I-126, 1-((R)-2-(5-fluoro-2-methoxyphenyl)-2-(2-hydroxyethoxy)ethyl)-5-methyl-3-((R)-3-methyl-2-oxopiperidin-3-yl)-6-(2H, 1,2,3-triazol-2-yl)thieno[2,3-d]pyrimidine-2,4(1H,3H)-dione], the pIC50 in experiment [1] is 8.00 to 8.70; in experiment [5], 8.70 to 9.15. For the same molecule, the MIC in experiment [2] lay within 2.1 to 4 µg/mL (≈ 3.67 to 6.99 µM); in experiment [3], 0.25 to 1 µg/mL (≈ 0.437 to 1.75 µM); in experiment [4], 2.1 to 4 µg/mL (≈ 3.67 to 6.99 µM).

As to `COc1ccc(F)cc1[C@H](Cn1c(=O)n([C@@]2(C)CCCNC2=O)c(=O)c2c(C)c(-n3nccn3)sc21)OCCO` [Compound I-127, 1-((R)-2-(5-fluoro-2-methoxyphenyl)-2-(2-hydroxyethoxy)ethyl)-5-methyl-3-((S)-3-methyl-2-oxopiperidin-3-yl)-6-(2H-1,2,3-triazol-2-yl)thieno[2,3-d]pyrimidine-2,4(1H,3H)-dione], the pIC50 in experiment [1] was 7.00 to 8.00; in experiment [5], 8.70 to 9.15. Besides, the MIC in experiment [2], in experiment [3] and in experiment [4] was 2.1 to 4 µg/mL (≈ 3.67 to 6.99 µM) throughout.

Regarding `COCCO[C@@H](Cn1c(=O)n([C@]2(C)CCCN(C)C2=O)c(=O)c2c(C)c(-n3nccn3)sc21)c1cc(F)ccc1OC` [Compound I-128, 3-((R)-1,3-dimethyl-2-oxopiperidin-3-yl)-1-((R)-2-(5-fluoro-2-methoxyphenyl)-2-(2-methoxyethoxy)ethyl)-5-methyl-6-(2H-1,2,3-triazol-2-yl)thieno[2,3-d]pyrimidine-2,4(1H,3H)-dione], the pIC50 in experiment [1] was 7.00 to 8.00; in experiment [5] it was 8.00 to 8.70. The MIC in experiment [2], in experiment [3] and in experiment [4] was 2.1 to 4 µg/mL (≈ 3.5 to 6.66 µM) each time.

As for `COc1ccc(F)cc1[C@H](Cn1c(=O)n([C@]2(C)CCCN(C)C2=O)c(=O)c2c(C)c(-n3nccn3)sc21)OCCO` [Compound I-129, 3-((R)-1,3-dimethyl-2-oxopiperidin-3-yl)-1-((R)-2-(5-fluoro-2-methoxyphenyl)-2-(2-hydroxyethoxy)ethyl)-5-methyl-6-(2H-1,2,3-triazol-2-yl)thieno[2,3-d]pyrimidine-2,4(1H,3H)-dione], the pIC50 in experiment [1] was 7.00 to 8.00; in experiment [5] it was 8.70 to 9.15. In addition, the MIC in experiment [2], in experiment [3] and in experiment [4] was 2.1 to 4 µg/mL (≈ 3.58 to 6.82 µM) in each case.

`COCCO[C@@H](Cn1c(=O)n([C@@]2(C)CCCN(C)C2=O)c(=O)c2c(C)c(-n3nccn3)sc21)c1cc(F)ccc1OC` [Compound I-130, 3-((S)-1,3-dimethyl-2-oxopiperidin-3-yl)-1-((R)-2-(5-fluoro-2-methoxyphenyl)-2-(2-methoxyethoxy)ethyl)-5-methyl-6-(2H-1,2,3-triazol-2-yl)thieno[2,3-d]pyrimidine-2,4(1H,3H)-dione]: the pIC50 in experiment [1] was 6.00 to 7.00; in experiment [5], 8.00 to 8.70. The MIC in experiment [2], in experiment [3] and in experiment [4] was 2.1 to 4 µg/mL (≈ 3.5 to 6.66 µM) each time.

For `COc1ccc(F)cc1[C@H](Cn1c(=O)n([C@@]2(C)CCCN(C)C2=O)c(=O)c2c(C)c(-n3nccn3)sc21)OCCO` [Compound I-131, 3-((S)-1,3-dimethyl-2-oxopiperidin-3-yl)-1-((R)-2-(5-fluoro-2-methoxyphenyl)-2-(2-hydroxyethoxy)ethyl)-5-methyl-6-(2H-1,2,3-triazol-2-yl)thieno[2,3-d]pyrimidine-2,4(1H,3H)-dione], the pIC50 is 7.00 to 8.00 in experiment [1] and 8.70 to 9.15 in experiment [5]. For the same molecule, the MIC in experiment [2], in experiment [3] and in experiment [4] was 2.1 to 4 µg/mL (≈ 3.58 to 6.82 µM) each time.

Turning to `COCCO[C@@H](Cn1c(=O)n([C@]2(C)CCC(=O)NC2)c(=O)c2c(C)c(-n3nccn3)sc21)c1cc(F)ccc1OC` [Compound I-132, 1-((R)-2-(5-fluoro-2-methoxyphenyl)-2-(2-methoxy-ethoxy)ethyl)-5-methyl-3-((R)-3-methyl-6-oxopiperidin-3-yl)-6-(2H-1,2,3-triazol-2-yl)thieno[2,3-d]pyrimidine-2,4(1H,3H)-dione], the pIC50 in experiment [1] is 7.00 to 8.00; in experiment [5] it was 8.70 to 9.15. For the same molecule, the MIC in experiment [2], in experiment [3] and in experiment [4] was 2.1 to 4 µg/mL (≈ 3.58 to 6.82 µM) in each case.

As to `COCCO[C@@H](Cn1c(=O)n([C@@]2(C)CCC(=O)NC2)c(=O)c2c(C)c(-n3nccn3)sc21)c1cc(F)ccc1OC` [Compound I-134, 1-((R)-2-(5-fluoro-2-methoxyphenyl)-2-(2-methoxy-ethoxy)ethyl)-5-methyl-3-((S)-3-methyl-6-oxopiperidin-3-yl)-6-(2H-1,2,3-triazol-2-yl)thieno[2,3-d]pyrimidine-2,4(1H,3H)-dione], the pIC50 in experiment [1] was 6.00 to 7.00; in experiment [5] it was 8.00 to 8.70. Besides, the MIC in experiment [2], in experiment [3] and in experiment [4] was 2.1 to 4 µg/mL (≈ 3.58 to 6.82 µM) in each case.

Values taken from patent publication US20190330224A1, “ACC INHIBITORS AND USES THEREOF” (Gilead Apollo, LLC, priority 2015, published 2019).
